Tested on: isolated CE-1 enzyme from porcine liver
Experiment: CE-1 activity on short chain esters, 1H NMR
Type: biochemical
Conditions: 37° C.; for k: 26 μmol substrate, conversion over 60 min
Text: To measure almost exclusively the contribution of carboxyl esterase activity from the CE-2 isoform, human breast cancer cells (MCF-7) were employed. These cells are known from literature to express CE-2 but not to express CE-1 (Byun et al, 2008, Cancer letters 266:238-48). A group of esters was investigated as substrates for CE-1, which contained different structural features. These consisted of esters of un-substituted acids (examples are ethyl acetate, ethyl butyrate, methyl butyrate), esters of acids substituted on C2 (examples are ethyl lactate and ethyl 2-acetoxy propanoate), esters of acids substituted on C3 (examples are ethyl 3-hydroxy butyrate and ethyl 3-acetoxy butanoate), esters of ring closed acids (example ethyl pyroglutamate), esters of di-acids (examples are diethyl succinate and dimethyl succinate), esters of tri-acids (example triethyl citrate), ethyl esters of beta-keto acids (example ethyl acetoacetate). Also esters with large alcohol groups and small acid groups were investigated. In this group, the acid part of the molecule was always acetate and different structural properties of the alcohol were investigated. These consisted of esters of un-substituted alcohols (examples ethyl acetate and butyl acetate), esters of branched chain alcohols (examples t-butyl acetate, ethyl 3-acetoxy butanoate and 2-acetoxy propionate), esters of aromatic alcohols (example benzyl acetate), esters of diols (example ethyleneglycol diacetate), esters of triols (example triacetin). […] Similarly, a group of esters which contained different structural features was investigated as substrates for CE-2. CE-2 substrates are described in the literature to consist of a small acid group and a larger alcohol group. All included esters were acetate esters (i.e. esters of acetic acid) in the interest of keeping the acid moiety the smallest possible. The acetate esters measured for CE-2 activity were therefore the same as those measured in the second group of possible substrates for CE-1.
The CE-1 experiments were performed with commercially available CE-1 from porcine liver. Individual samples of the substrates were all prepared the following way: 26 μmol was weighted in an eppendorf tube. 550 μl deuterated phosphate buffer (200 mM, pH 7.5) was added and the substrate was brought into solution by whirl mixing. The solution was transferred to a 5 mm NMR tube and inserted in the spectrometer at 37° C. A reference experiment was acquired on the substrate solution without enzyme after which 10 μl of an esterase stock solution (37 U/ml in deuterated phosphate buffer) was added in the top of the tube. The sample was mixed and returned to the spectrometer. A series of thermal 1D ^1H NMR experiments were recorded every 5 min for 60 min. The data were analysed with MNOVA software and measured as percentage conversion of substrate calculated to account for the amount of substrate converted over 60 min. The numbers are given in μmol/min.

CC(=O)OCc1ccccc1 [Benzyl acetate]
k: 0.07 µmol/min

CC(=O)OCC(COC(C)=O)OC(C)=O [Tri-acetin]
k: 0.02 µmol/min

CCOC(=O)CC(C)OC(C)=O (stereo not shown) [ethyl 3-acetoxy butanoate]
k (μmol/min), acetate ester (hydrolysis of the acetate ester function, 60 min): 0 µmol/min | k (μmol/min), ethyl ester (hydrolysis of the ethyl ester function, 60 min): 0.08 µmol/min

Reference: patent US20150133341A1, “Intra-Operative Cancer Diagnosis Based on a Hyperpolarized Marker” (ALBEDA INNOVATIONS APS, priority 2012, published 2015)
